Test results reported in patent US20180252705A1, “Myeloid Progenitor Cells in Kidney Disease” (Rush University Medical Center, priority 2015, published 2018).
“Also recorded” adds a separate entry of the source. Counter-ions that a name gives are not always drawn.

Key:
NSG mice = assay: Proteinuria (ACR) in LPS injected NSG mice; type: in vivo, mouse; conditions: LPS vs PBS, 24 hours after LPS administration
Protocol: (§1) Albumin creatinine ratio (ACR) measurement Mouse urine samples were collected and urinary albumin and creatinine were measured by mouse albumin ELISA (Bethyl Labs), and creatinine assay (Cayman chemical) kits according to manufacturers' protocols. The ratio of urinary albumin to creatinine was then calculated.
(§2) Proteinuric animal models. i) LPS injected mice. Proteinuria was induced with single injection of LPS as described previously (Wei et al., 2008; Wei et al.,). Briefly, mice were injected with LPS (Sigma) i.p at a dose of 10 mg per kg body weight. The mice injected with PBS were used as a control. Twenty-four hours after LPS treatment, urine and blood samples were collected and kidney, femurs, and tibias were harvested from the sacrificed mice.

suPAR [1] = assay: Circulating and urinary suPAR levels (ELISA) in proteinuric animal models; type: in vivo, mouse
Protocol: (§3) Detection of circulating and urinary suPAR levels Mouse suPAR levels from plasma (and/or serum) and urine were evaluated by enzyme-linked immunosorbent assay (ELISA) kit (R&D systems) following the manufacturer's protocol.
as §2
ii) Pod-Rac1, Inducible EGFP_CA-Rac1 transgenic mice. EGFP_CA-Rac1 transgenic mice were crossed to Nphs1-rtTA (NEF-rtTA) inducer mice to generate double transgenic (dTG, NEF×Rac1) mice. Male mice were used in this study. To induce transgene expression, regular chow was replaced with doxycycline (DOX)-supplemented chow (2,000 ppm; TestDiet). Single transgenic (EGFP_CA-Rac1) mice were used as a control. Twelve days after DOX diet, urine and blood samples were collected and kidney, femurs, and tibias were harvested from the sacrificed mice. Hi) Adiamycin (ADR) injected mice: Proteinuria was induced with single injection of ADR as described previously. […]

BM myeloid cells = assay: Flow cytometric analysis of BM cells (uPAR, Gr-1, Sca-1) in proteinuric animal models; type: in vivo, mouse
Protocol: as §2
ii) Pod-Rac1, Inducible EGFP_CA-Rac1 transgenic mice. EGFP_CA-Rac1 transgenic mice were crossed to Nphs1-rtTA (NEF-rtTA) inducer mice to generate double transgenic (dTG, NEF×Rac1) mice. Male mice were used in this study. To induce transgene expression, regular chow was replaced with doxycycline (DOX)-supplemented chow (2,000 ppm; TestDiet). Single transgenic (EGFP_CA-Rac1) mice were used as a control. Twelve days after DOX diet, urine and blood samples were collected and kidney, femurs, and tibias were harvested from the sacrificed mice. Hi) Adiamycin (ADR) injected mice: Proteinuria was induced with single injection of ADR as described previously. (Wang et al.) Briefly, male BALB/c mice were injected with ADR (Doxorubicin Hydrochloride, Sigma) via the tail vein at a dose of 11 mg per kg body weight. Six days after ADR injection, urine and blood samples were collected and kidney, femurs, and tibias were harvested from the sacrificed mice. iv) TGF β1 transgenic mice: The transgenic mice that express an active form of TGF β1 under the control of murine albumin promoter developed proteinuria as described previously (Kopp et al.). Since the transgene is on the Y chromosome, male mice (<4-week-old) with severe phenotype were used. Littermate female mice were used as a control. v) Nephrotoxic serum (NTS) nephritis model: Proteinuria was induced by injection of NTS as described previously (Kistler et al.). Briefly, male C57BL6 mice were injected i.p with sheep anti-rabbit glomerular basement membrane antibody at a dose of 500 mg per kg body weight on consecutive days. The mice injected PBS were used as a control. Seven days after injection, urine and blood samples were collected and kidney, femurs, and tibias were harvested from the sacrificed mice. vi) BTBR ob/ob diabetic nephropathy (DN) model: The mouse strain BTBR with the ob/ob leptin-deficiency mutation developed severe type 2 diabetes with heavy proteinuria as described previously (Hudkins et al.). Wild-type (BTBR ob^+/+), heterozygous (BTBR ob^+/−), and homozygous (BTBR ob^−/−) mice were obtained by mating heterozygous (BTBR ob^+/−) mice. For DN model, 16-week-old homozygotes (BTBR ob^−/−) were used. Wild-type (BTBR ob^+/+) or heterozygote (BTBR ob^+/−) littermates were used as controls.
Purification of mouse PBLs and BMCs. To collect blood, mice were anesthetized, then the blood was drawn from posterior vena cava into acid-citrate-dextrose (ACD, Sigma) solution-containing 1 ml syringe. After lysis of red blood cells (RBCs), blood leukocytes were washed and counted. For BMCs purification, femurs and tibias were taken and flushed with a syringe filled with Hank's balanced salt solution (HBSS, Life Technologies) containing 0.1% bovine serum albumin and 20 mM HEPES (pH 7.4). […]
Flow cytometric analysis. […] And the cells were labeled for 30 minutes on ice with fluorescence-conjugated antibodies: Gr-1-allophycocyanin (APC), uPAR-phycoerythrin (PE), Sca-1-fluorescein isothiocyanate (FITC), c-kit-APC, and irrelevant IgG isotype control antibodies. […]

BM cells = assay: in vitro LPS stimulation on isolated BM cells; type: cell-based, mouse; conditions: LPS 0.1, 1 and 10 μg/ml, 24-hour incubation, dose-dependent
Protocol: in vitro LPS stimulation on isolated BM cells. The BM cells were isolated from C57BL6 WT mice and treated with PBS or various concentrations of LPS (0.1, 1, and 10 μg/ml). Following 24-hour-incubation at 37 C in a CO2 incubator (5%), the cells and culture supernatants were collected. The cells were stained for uPAR, Sca-1, and Gr-1. The in vitro induction of uPAR+Sca-1^loGr-1^lo cells in total BM cells was determined by triple color-flow cytometric analysis. The culture supernatants were used for suPAR measurement.

LPS-challenged mice = assay: LPS-induced proteinuria after pretreatment, albumin creatinine ratio (ACR); type: in vivo, mouse; conditions: agent given prior to LPS challenge; urine 24 hours after LPS; compared to LPS alone / isotype control
Protocol: as §1, §2
In vivo depletion. Anti-Ly6G monoclonal antibody (1A8, BioXcell) or control rat IgG2a antibody (2A3, BioXcell) was injected i.p into mice (500 μg per mouse) 48 hours and 1 hour prior to LPS injection. Neutrophil depletion was confirmed by flow cytometric analysis.
(§4) Treatment of granulocyte colony stimulating factor (G-CSF). Recombinant mouse G-CSF (Shenandoah Biotechology INC) was administrated by daily i.p injection into BALB/c mice at a dose of 4 μg per 20 g body weight for 2 consecutive days. Blood cell counts were determined using a Hemavet 950FS (Drew Scientific).
Treatment of plerixafor. […]

suPAR [2] = assay: Plasma suPAR levels (ELISA) in pretreated LPS-challenged mice; type: in vivo, mouse; conditions: G-CSF for two consecutive days prior to LPS; 24 hours after LPS; compared to LPS alone
Protocol: as §3, §2, §4

[3] = ADR-induced nephropathy, male BALB/c, 11 mg per kg tail vein, six days after injection

How did the “proteinuria (ACR)” value (NSG mice) turn out when lipopolysaccharide [LPS] was run?
The value was “resulting in proteinuria; also recorded: caused proteinuria”.

What about the “suPAR levels in blood and urine” value (suPAR [1]; NSG mice, LPS vs PBS, 24 hours after LPS administration) of the same molecule?
Its value is “elevated suPAR levels in both blood and urine; also recorded: enhanced blood suPAR levels”.

And the “uPAR-expressing Sca-1/Gr-1^lo BM cell population (myeloid progenitor cells)” value (BM myeloid cells; LPS vs PBS injected mice, 24 hours)?
The value was “increased uPAR-expressing BM cell population; also recorded: increased the population of Sca-1^+Gr-1^lo myeloid progenitor cells”.

What about the “uPAR expression on BM myeloid cells (not peripheral blood myeloid cells)” value (BM myeloid cells; LPS-treated vs PBS-treated mice) of the same molecule?
The value was “elevated levels of uPAR; also recorded: increased uPAR expression”.

And the “uPAR expression on BM myeloid cells” value (BM myeloid cells; NSG mice, LPS vs PBS)?
The value was “increased uPAR expression on BM myeloid cells”.

What about the “Gr-1^lo cells in BM (percentage; ratio to Gr-1^hi)” value (BM myeloid cells; WT mice, LPS vs PBS, 24 hours) of the same molecule?
Its value is “significant increase; also recorded: markedly increased ratio”.

And the “expansion of uPAR-expressing MPCs (uPAR+Sca-1^lo Gr-1^lo cells in total BM cells)” value (BM cells)?
The value was “stimulated the expansion of uPAR-expressing MPCs”.

And the “suPAR secretion into the culture medium” value (BM cells; suPAR ELISA)?
Its value is “stimulated”.

Which “proteinuria (ACR)” value (LPS-challenged mice) does the source give for `c1cc(CN2CCCNCCNCCCNCC2)ccc1CN1CCCNCCNCCCNCC1` [plerixafor, Plerixafor] here?
Its value is “did not enhance proteinuria”.

`COc1cccc2c1C(=O)c1c(O)c3c(c(O)c1C2=O)C[C@@](O)(C(=O)CO)C[C@@H]3O[C@H]1C[C@H](N)[C@H](O)[C@H](C)O1` [ADR, Doxorubicin Hydrochloride] was tested. Which “suPAR levels in the circulation or urine” value (suPAR [1]; [3]) did it give?
Its value is “did not find elevated suPAR levels”.

What about the “percentage of Gr-1^lo myeloid cells in BM” value (BM myeloid cells; [3]) of the same molecule?
Its value is “no significant increase”.

B1: G-CSF: Recombinant mouse G-CSF (Shenandoah Biotechology INC) (protein, UniProt P09920 31-208, looked up)
Granulocyte …: VPLVTVSALPPSLPLPRSFLLKSLEQVRKIQASGSVLLEQLCATYKLCHPEELVLLGHSLGIPKASLSGCSSQALQQTQCLSQLHSGLCLYQGLLQALSGISPALAPTLDLLQLDVANFATTIWQQMENLGVAPTVQPTQSAMPAFTSAFQRRAGGVLAISYLQGFLETARLALHHLA
For B1, which “proteinuria (ACR)” value (LPS-challenged mice) is on record?
The value was “accelerated proteinuria”.

What about the “plasma suPAR levels” value (suPAR [2]) of the same molecule?
Its value is “increased plasma suPAR levels; also recorded: enhanced plasma suPAR levels”.
